Literature values as cited in US10327463B2 (priority 2015, dated 2019).
Structures can show the parent of a compound that is named as a salt.

Columns and labels:
Listeria monocytogenes [1] = details: alone or with additional antimicrobials; turkey slurries with and without sodium nitrite
Listeria monocytogenes [2] = details: maximum allowed level of 156 ppm, without adjunct antimicrobials
Clostridium species = details: cured products, processed meat formulations

Structure (SMILES): CC(=O)O [acetic acid or its salt, acetic acid]
- inhibition of C. perfringens (C. perfringens): failed to inhibit C. perfringens

Structure (SMILES): CC(=O)O.CC(=O)[O-].[Na+] [sodium diacetate]
- level effective in controlling Listeria monocytogenes (Listeria monocytogenes [1]): 0.3-0.5%

Structure (SMILES): O=NO [sodium nitrite]
- inhibition of Listeria monocytogenes (Listeria monocytogenes [2]): insufficient for the inhibition of Listeria monocytogenes
- level sufficient for the inhibition of Clostridium species (Clostridium species): approx. 50 ppm
